Ki and melting point data for 34 compounds are collected here from patent US6548494B1, “Tricyclic inhibitors of poly(ADP-ribose) polymerases” (Agouron Pharmaceuticals, Inc., priority 1999, dated 2003).

The pKi is the negative decadic logarithm of the Ki, by convention in mol/L. Broadly, the melting point is the temperature, or range, at which the solid turns liquid. A word on the Ki: it is the dissociation constant of the complex between target and ligand, obtained from inhibition or displacement. Read a low Ki as tighter binding.

In one data set the target is purified PARP protein (Homo sapiens, UniProt P09874). The experiment in a line: PARP enzyme inhibition assay. The format is biochemical. Conditions: for pKi: 20 nM purified PARP (5 nM for tight-binding inhibitors), 500 μM NAD+, 25° C., several values in one cell = repeat determinations, read-out: Inhibition Constant Ki; for Ki: Inhibition Constant Ki (nM).

pKi: −log10 of the molar value. Values joined by “and” are separate entries in the source; they are usually repeats but may differ in a detail not shown here. Equal values may be shown once. Read-outs that look alike come from different tables or passages of the source.

Chain of purified PARP protein (P09874 whole entry): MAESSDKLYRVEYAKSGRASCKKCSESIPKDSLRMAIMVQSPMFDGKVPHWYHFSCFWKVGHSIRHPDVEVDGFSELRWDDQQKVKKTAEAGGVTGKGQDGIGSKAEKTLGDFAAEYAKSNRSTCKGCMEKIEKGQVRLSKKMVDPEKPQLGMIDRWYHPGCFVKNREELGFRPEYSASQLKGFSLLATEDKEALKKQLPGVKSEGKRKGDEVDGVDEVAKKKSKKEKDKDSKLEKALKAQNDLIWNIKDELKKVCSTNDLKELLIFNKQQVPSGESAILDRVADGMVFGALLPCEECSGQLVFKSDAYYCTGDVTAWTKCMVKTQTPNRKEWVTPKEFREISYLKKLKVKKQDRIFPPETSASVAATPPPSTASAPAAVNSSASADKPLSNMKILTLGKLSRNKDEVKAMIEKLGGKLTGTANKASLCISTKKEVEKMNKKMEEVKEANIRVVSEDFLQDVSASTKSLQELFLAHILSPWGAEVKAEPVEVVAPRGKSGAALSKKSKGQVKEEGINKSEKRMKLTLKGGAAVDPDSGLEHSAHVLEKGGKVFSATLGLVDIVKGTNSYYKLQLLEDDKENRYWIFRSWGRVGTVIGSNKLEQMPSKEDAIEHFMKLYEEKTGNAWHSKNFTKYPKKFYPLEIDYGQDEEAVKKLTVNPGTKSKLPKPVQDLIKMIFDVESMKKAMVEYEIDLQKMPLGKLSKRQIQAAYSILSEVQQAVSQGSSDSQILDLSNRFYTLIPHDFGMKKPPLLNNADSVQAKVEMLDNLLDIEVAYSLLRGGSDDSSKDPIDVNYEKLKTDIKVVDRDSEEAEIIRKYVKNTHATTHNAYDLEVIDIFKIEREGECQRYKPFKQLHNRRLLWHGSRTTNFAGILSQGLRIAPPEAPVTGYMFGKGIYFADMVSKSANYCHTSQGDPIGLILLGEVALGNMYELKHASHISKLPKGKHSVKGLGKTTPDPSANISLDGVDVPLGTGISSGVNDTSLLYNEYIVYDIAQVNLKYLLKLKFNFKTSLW

On to `O=C1NCCn2c(-c3cccc(Oc4ccc(Cl)c(Cl)c4)c3)nc3cccc1c32` [Example 63, 1-[3-(3,4-Dichlorophenoxy)-phenyl]-8,9-dihydro-7H-2,7,9a-triaza-benzo[cd]azulen-6-one], for which the melting point is 252 to 254 °C (dec.). The pKi on purified PARP protein is 7.89.
`N#Cc1c(-c2ccc(F)cc2)n2c3c(cccc13)C(=O)NCC2` [Example 91, 6-(4-Fluoro-phenyl)-1-oxo-1,2,3,4-tetrahydro-[1,4]diazepino[6,7,1-hi]indole-7-carbonitrile] returned a melting point of 248 to 250 °C. Also, the pKi on purified PARP protein was 7.27.
The like results for `CSc1nc2cccc3c2n1CCNC3=O` [Example 138, 1-Methylsulfanyl-8,9-dihydro-7H-2,7,9a-triaza-benzo[cd]azulen-6-one] were, in that order, 223 to 225 °C and 7.96.
For the compound `O=C1NCCn2c(-c3ccc(-c4ncc[nH]4)cc3)nc3cccc1c32` [Example 152, 1-[4-(1H-Imidazol-2-yl)-phenyl]-8,9-dihydro-7H-2,7,9a-triaza-benzo[cd]azulen-6-one], the melting point was above 325 °C. Further, the pKi at purified PARP protein is 8.49.
Take `CC(O)c1c(-c2ccc(F)cc2)n2c3c(cccc13)C(=O)NCC2` (centres unmarked) [Example 157, 6-(4-Fluoro-phenyl)-7-(1-hydroxy-ethyl)-3,4-dihydro-2H-[1,4]diazepino[6,7,1-hi]indol-1-one]: the melting point was in the range of 220 to 222 °C. In addition, the pKi at purified PARP protein was 6.27.
Take `O=C1NCCn2c(-c3ccc[nH]3)nc3cccc1c32` [Example 95, 1-(1H-Pyrrol-2-yl)-8,9-dihydro-7H-2,7,9a-triaza-benzo[cd]azulen-6-one]: the melting point is 327 to 332 °C (dec.). Further, at purified PARP protein, the pKi was 8.21.
For `O=C1NCCn2c(-c3cccc(Oc4cc(Cl)cc(Cl)c4)c3)nc3cccc1c32` [Example 65, 1-[3-(3,5-Dichlorophenoxy)-phenyl]-8,9-dihydro-7H-2,7,9a-triaza-benzo[cd]azulen-6-one], in that order: 258 to 259 °C (dec.) and 7.96.
As to `CC(C)(C)c1nc2cccc3c2n1CCNC3=O` [Example 22, 1-tert-Butyl-8,9-dihydro-7H-2,7,9a-triaza-benzo[cd]azulen-6-one], the melting point lay within 246 to 248 °C. For the same compound, the pKi at purified PARP protein is 7.89 and 7.85 and 7.82.
As to `C#CCNCc1ccc(-c2nc3cccc4c3n2CCNC4=O)cc1` [Example 104, 1-(4-Prop-2-ynylaminomethyl-phenyl)-8,9-dihydro-7H-2,7,9a-triaza-benzo[cd]azulen-6-one], the melting point is 126 °C (dec.). Besides, the pKi on purified PARP protein was 8.35.
For `N#Cc1cccc(-c2nc3cccc4c3n2CCNC4=O)c1` [Example 73, 3-(6-Oxo-6,7,8,9-tetrahydro-2,7,9a-triaza-benzo[cd]azulen-1-yl)-benzonitrile], in that order: 283 to 284 °C (dec.) and 8.00.
On to `O=C1NCCn2cc(/C(=N/O)c3ccccc3)c3cccc1c32` [Example 168, 7-(1-Hydroxyimino-1-phenyl-methyl)-3,4-dihydro-2H-[1,4]diazepino[6,7,1-hi]indol-1-one], for which the melting point lay in the range of 263 to 265 °C. This compound yielded a Ki on purified PARP protein of 38 nM.
In the case of `O=C1NCCn2c(-c3ccc(CN4CC[S+]([O-])CC4)cc3)nc3cccc1c32` [Example 122, 1-[4-(Oxo-1λ^4-thiomorpholin-4-ylmethyl)-phenyl]-8,9-dihydro-7H-2,7,9a-triaza-benzo[cd]azulen-6-one], the melting point was 247 °C (dec.). Besides, on purified PARP protein, the pKi was 8.15.
Compound `O=C1NCCn2c(-c3ccc(CN4CCCC4)cc3)cc3cccc1c32` [Example 84, 6-(4-Pyrrolidin-1-ylmethyl-phenyl)-3,4-dihydro-2H-[1,4]diazepino[6,7,1-hi]indol-1-one] displayed a melting point of 146 to 148 °C. The pKi on purified PARP protein is 8.19 and 8.15.
In turn, `O=C(c1ccccc1)c1cn2c3c(cccc13)C(=O)NCC2` [Example 167, 7-(1-Benzoyl)-3,4-dihydro-2H-[1,4]diazepino[6,7,1-hi]indol-1-one] had a melting point of 229 to 230 °C. The pKi at purified PARP protein is 6.47.
The compound `CNCc1cccc(-c2nc3cc(F)cc4c3n2CCNC4=O)c1` [Example 72, 1-(3-Methylaminomethyl-phenyl)-4-fluoro-8,9-dihydro-7H-2,7,9a-triaza-benzo[cd]azulen-6-one] had a melting point of 196 to 198 °C. The pKi on purified PARP protein was 8.46.
For `O=C1NCCn2c(-c3ccc(CCOC4CCCCO4)cc3)nc3cccc1c32` (centres unmarked) [Example 125, 1-{4-[2-(Tetrahydro-pyran-2-yloxy)-ethyl]-phenyl}-8,9-dihydro-7H-2,7,9a-triaza-benzo[cd]azulen-6-one], the melting point was 189 to 190 °C. Besides, on purified PARP protein, the negative logarithm of the Ki (pKi) is 7.96.
The like results for `CN(C)CCOc1ccc(-c2nc3cccc4c3n2CCNC4=O)cc1` [Example 124, 1-[4-(2-Dimethylamino-ethoxy)-phenyl]-8,9-dihydro-7H-2,7,9a-triaza-benzo[cd]azulen-6-one] were, in that order, 184 to 186 °C and 8.10.
The like results for `CN(C)Cc1cccc(-c2nc3cc(F)cc4c3n2CCNC4=O)c1` [Example 70, 1-(3-Dimethylaminomethyl-phenyl)-4-fluoro-8,9-dihydro-7H-2,7,9a-triaza-benzo[cd]azulen-6-one] were, in that order, 215 to 217 °C (dec.) and 8.36.
In turn, `O=C1NCCn2c(SCc3ccccc3)nc3cccc1c32` [Example 29, 1-Benzylsulfanyl-8,9-dihydro-7H-2,7,9a-triaza-benzo[cd]azulen-6-one] came in with a melting point of 189 to 191 °C. Further, on purified PARP protein, the pKi was 7.62.
Turning to `O=C1NCCn2c(-c3cccc(Oc4cccc(C(F)(F)F)c4)c3)nc3cccc1c32` [Example 61, 1-[3-(3-Trifluoromethyl-phenoxy)-phenyl]-8,9-dihydro-7H-2,7,9a-triaza-benzo[cd]azulen-6-one], the melting point is 121 to 122 °C. Moreover, the pKi at purified PARP protein is 8.21.
Compound `O=C1NCCn2c(-c3ccc(F)cc3)c(-c3ccn[nH]3)c3cccc1c32` [Example 160, 6-(4-Fluoro-phenyl)-7-(2H-pyrazol-3-yl)-3,4-dihydro-2H-[1,4]diazepino[6,7,1-hi]indol-1-one] showed a melting point of 173 to 175 °C. The affinity on purified PARP protein corresponds to a Ki of 249 nM.
`CC(C)Cc1nc2cccc3c2n1CCNC3=O` [Example 23, 1-Isobutyl-8,9-dihydro-7H-2,7,9a-triaza-benzo[cd]azulen-6-one] had a melting point of 211 to 212 °C. For the same compound, the pKi on purified PARP protein is 7.76.
The like results for `C[C@H]1Cn2c(-c3ccc(Cl)cc3)nc3cccc(c32)C(=O)N1` [Example 235, (S)-1-(4-Chloro-phenyl)-8-methyl-8,9-dihydro-7H-2,7,9a-triaza-benzo[cd]azulen-6-one] were, in that order, 244 to 246 °C and 8.27.
With `CC(C)N1CCCCC1c1ccc(-c2nc3cccc4c3n2CCNC4=O)cc1` (centres unmarked) [Example 151], the melting point was > 260 °C (dec.). On purified PARP protein, the pKi is 8.16.
In the case of `O=C1NCCn2c(-c3ccc(-c4nn[nH]n4)cc3)nc3cccc1c32` [Example 136, 1-[4-(2H-Tetrazol-5-yl)-phenyl]-8,9-dihydro-7H-2,7,9a-triaza-benzo[cd]azulen-6-one], the melting point is > 290 °C (dec.). Besides, the pKi on purified PARP protein is 7.02.
`O=C1NCCn2c(-c3cccc(CN4CCCC4)c3)cc3cccc1c32` [Example 88, 6-(3-Pyrrolidin-1-ylmethyl-phenyl)-3,4-dihydro-2H-[1,4]diazepino[6,7,1-hi]indol-1-one] had a melting point of 158 to 160 °C. In addition, the pKi at purified PARP protein was 7.92 and 7.89.
Regarding `O=C1NCCn2c(-c3ccccn3)cc3cccc1c32` [Example 40, 6-Pyridin-2-yl-3,4-dihydro-2H-[1,4]diazepino[6,7,1-hi]indol-1-one], the melting point fell in the range of 173 to 175 °C. For the same compound, the pKi at purified PARP protein is 7.17.
For `O=C1NCCn2c(-c3cccc(Oc4ccc(Cl)cc4)c3)nc3cccc1c32` [Example 62, 1-[3-(4-Chlorophenoxy)-phenyl]-8,9-dihydro-7H-2,7,9a-triaza-benzo[cd]azulen-6-one], the melting point lay within 211 to 212 °C. The pKi on purified PARP protein was 8.21.
For `Cc1ccc(-c2onc3ccc(-c4nc5cccc6c5n4CCNC6=O)cc23)cc1` [Example 107, 1-(3-p-Tolyl-benzo[c]isoxazol-5-yl)-8,9-dihydro-7H-2,7,9a-triaza-benzo[cd]azulen-6-one], in that order: 297 to 301 °C (dec.) and 7.60.
As to `NC(=O)c1c(-c2ccc(F)cc2)n2c3c(cccc13)C(=O)NCC2` [Example 92, 6-(4-Fluoro-phenyl)-1-oxo-1,2,3,4-tetrahydro-[1,4]diazepino[6,7,1-hi]indole-7-carboxylic Acid Amide], the melting point lay in the range of 287 to 289 °C. Besides, the pKi on purified PARP protein is 6.70.
Consider `CCOCCNCc1ccc(-c2nc3cccc4c3n2CCNC4=O)cc1` [Example 100, 1-{4-[(2-Ethoxyethylamino)-methyl]-phenyl}-8,9-dihydro-7H-2,7,9a-triaza-benzo[cd]azulen-6-one], for which the melting point was in the range of 138 to 140 °C. Also, the pKi at purified PARP protein was 8.57.
The like results for `O=C1NCCn2c(-c3ccc(CNCC(F)(F)F)cc3)nc3cccc1c32` [Example 103, 1-4-[(2,2,2-Trifluoro-ethylamino)-methyl]-phenyl-8,9-dihydro-7H-2,7,9a-triaza-benzo[cd]azulen-6-one] were, in that order, 221 to 223 °C and 8.21.
Regarding `N/C(=N\O)c1c(-c2ccc(F)cc2)n2c3c(cccc13)C(=O)NCC2` [Example 155, 6-(4-Fluoro-phenyl)-N-hydroxy-1-oxo-1,2,3,4-tetrahydro-[1,4]diazepino[6,7,1-hi]indole-7-carboxmidine], the melting point lay in the range of 257 to 259 °C. Moreover, the pKi on purified PARP protein was 7.06.
The compound `O=Cc1cccc(-c2cc3cccc4c3n2CCNC4=O)c1` [Example 85, 3-(1-Oxo-1,2,3,4-tetrahydro-[1,4]diazepino[6,7,1-hi]indol-6-yl)-benzaldehyde] came in with a melting point of 192 to 194 °C. At purified PARP protein, the pKi was 7.92 and 7.89.
